In ChEMBL document CHEMBL6087451, “Design, Synthesis, and Biological Evaluation of 2-Arylaminopyrimidine Derivatives as Dual Cathepsin L and JAK Inhibitors for the Treatment of Acute Lung Injury” (J Med Chem, 2025) one finds inhibition, viability and Activity data, which are given here for 5 compounds.

Calls of active or inactive are those of the source. No cut-off for these calls is given here.

A short description of data set [1]: (§1) Anti-inflammatory activity against HBE cells assessed as inhibition of LPS-induced IL-8 level at 5 uM pretreated for 30 mins followed by LPS treatment for 24 hrs by ELISA relative to control. It counts as functional. The conditions noted are these: Homo sapiens, time 24.5 hrs.
Data set [2] is described as follows: (§2) Anti-inflammatory activity against HBE cells assessed as inhibition of LPS-induced IL-6 level at 5 uM pretreated for 30 mins followed by LPS treatment for 24 hrs by ELISA relative to control. It counts as functional. As to conditions: Homo sapiens, time 24.5 hrs. A general note: In an ELISA, binding on a coated surface is turned into a signal by an enzyme label.

The nature of data set [3]: Cytotoxicity against HBE cells assessed as cell survival at 10 uM by MTT assay relative to control. The conditions noted are these: human; for viability at 10 µM: HBE cells, read-out: Survival. It counts as toxicity, cell-based.
In data set [4] the test system is HBE. The data set is described as §1. The conditions noted are these: Homo sapiens, time 24.5 hrs. The class given is functional.
The subject of data set [5] is HBE. The description is as §2. The class given is functional. The conditions noted are these: Homo sapiens, time 24.5 hrs.

As for `Cn1cc(-c2ccnc(Nc3cccnc3)n2)c2ccccc21`, the inhibition (commonly the relative decrease from the control value, in per cent) at 5 µM is 56% in data set [1] and 54% in data set [2]. For the same compound, the viability at 10 µM in data set [3] is below 70%.

As for `Cn1cc(-c2ccnc(Nc3ccccn3)n2)c2ccccc21`, the inhibition at 5 µM in data set [1] came out at 56%; in data set [2], 68%. In data set [3], the viability at 10 µM was below 70%.

Consider `CCCCNc1nccc(-c2cn(C)c3ccccc23)n1`, for which the inhibition result in data set [4] and in data set [5] was “inactive” each time. The viability at 10 µM in data set [3] is below 70%.

Regarding `Nc1cccc(Nc2nccc(-c3c[nH]c4ccccc34)n2)c1`, the inhibition entry in data set [4] and in data set [5] was “Active” each time. In addition, the Activity result in data set [3] (hbe, 10 µM) is on record as “Toxic”.

In the case of `Cn1cc(-c2ccnc(NC3CC3)n2)c2ccccc21`, the inhibition entry in data set [4] and in data set [5] was “inactive” each time. In addition, the viability at 10 µM in data set [3] was below 70%.
